Reference: PubChem BioAssay AID179 (DTP/NCI, 2004)
Active and inactive are the calls of the source.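 The calls were made as follows: active = compounds giving half or more protection of infected cells from virus-caused growth loss, again on retest; inactive = the rest.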 Where a SMILES comes first, the peptide text is derived from it.

System: CEM cells HIV-1 protection, formazan growth assay
Experiment: NCI AIDS Antiviral Assay
Conditions: for IC50: measured here: growth of uninfected CEM cells
How it was run: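 Human CEM cells, uninfected and HIV-1-infected, exposed to five drug concentrations; growth measured by soluble formazan assay and scored as percent protection from infection, with protecting compounds retested.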

Structure (SMILES) | EC50 [µM] | IC50 [µM] | outcome
Cc1ccc2c(c1)CC1(Cc3cccc(C)c3C1=O)C2=O (stereo not given) | > 200 | > 200 | 
OCC(O)C(O)C(O)c1nc2ccccc2s1 (stereo not given) | > 977 | 120 | 
O=c1ccc(=O)n(CO)[nH]1 | > 1780 | 97.7 | 
CCOC(=O)C1=NC(c2ccccc2)(c2ccccc2)OC1=C(Cl)Cl | > 1 | > 1 | 
NCCCCNCCCNC(=O)c1csc(-c2nc(CCN)sc2Cl)n1 | > 302 | 18.6 | 
CC1OC2CC(=O)OC2C2=C1C(=O)c1c(O)cccc1C2=O (stereo not given) | > 2 | 0.0282 | 
O=C(CC1(O)C(=O)Nc2ccc([N+](=O)[O-])cc21)c1ccc(Br)cc1 (stereo not given) | > 41.7 | > 41.7 | 
CCOC(=O)C(=O)N(CC(=O)OC)C(=O)Cc1ccccc1 | 513 | 813 | 
CC(=O)N(CCc1ccccc1)C(C#N)c1ccc(OCCCCCCCCCCOc2ccc(C(C#N)N(CCc3ccccc3)C(C)=O)cc2)cc1 (stereo not given) | > 100 | > 100 | 
CCN(CC)C(=O)CCCCCCCCC1CO1 (stereo not given) | > 200 | 115 | 
CCCCCCCCC(=O)N(C)C1C2CN3CCC(O2)C13 (stereo not given) |  |  | inactive
CC(=O)NNc1nc(C)c(C(=O)/C=C/c2ccccc2Cl)s1 | > 77.6 | 58.9 | 
O=S(=O)(Nc1ccccc1)c1ccc(-c2c3nc(c(-c4ccc(S(=O)(=O)Nc5ccccc5)cc4)c4ccc([nH]4)c(-c4ccc(S(=O)(=O)Nc5ccccc5)cc4)c4nc(c(-c5ccc(S(=O)(=O)Nc6ccccc6)cc5)c5ccc2[nH]5)C=C4)C=C3)cc1 | > 100 | > 100 | 
NC(N)=N/N=C/C(Cl)(Cl)Cl | > 200 | > 200 | 
N#CC(C#N)=Cc1cccc(Oc2ccccc2)c1 | > 29.5 | > 29.5 | 
CCN(CC)CCN1C=CC(C)C(C(=O)O)C1C(N)=O (stereo not given) | > 100 | > 100 | 
Nc1ccn(CCNCCn2cnc3nc(N)[nH]c(=O)c32)c(=O)n1 | > 8.32 | > 8.32 | 
O=c1[nH]c2nn(-c3ccccc3)cc2c(=O)n1O | > 200 | 3.31 | 
C[CH2][Sn]([CH2]C)([O]C(=O)C(OC(C)=O)c1ccccc1)[O]C(=O)C(OC(C)=O)c1ccccc1 (stereo not given) | > 229 | 2.69 | 
O=[N+]([O-])/C(C=Nc1ccccc1)=C/Nc1ccccc1 | > 200 | 105 | 
O=C(NNC(=O)c1ccccc1S)c1ccccc1S | 4.17 | 14.5 | 

Structure (SMILES) | EC50 [µM] | IC50 [µM] | outcome
CCC(C)C(NC(=O)CNC(=O)C(Cc1cnc[nH]1)NC(=O)C(NC(=O)C(CS)NC(=O)C(CCC(N)=O)NC(=O)C(NC(=O)C(NC(=O)C(CO)NC(=O)C(NC(=O)C(CC(N)=O)NC(=O)C(NC(=O)C(CS)NC(=O)C1CCCN1C(=O)CNC(=O)C(NC(=O)CN)C(C)O)C(C)O)C(C)C)C(C)O)C(C)C)C(C)O)C(=O)NC(CCCN=C(N)N)C(N)=O (stereo not given) (H-GTGPCTNVSTVQCTHGIR-NH2; configuration not given here) | > 50.1 | > 50.1 | 
CCOC(=O)NC(Nc1ccc(F)c(F)c1)(C(=O)OCC)C(F)(F)F (stereo not given) | > 200 | > 200 | 
CCOC(=O)CN1C(=O)c2ccc(NC(=O)C(=O)O)cc2S1(=O)=O | > 200 | > 200 | 
COC(=O)C1=C(/C=C/C(C)=O)NC(C)=C(C(=O)OC(C)C)C1c1ccccc1Cl (stereo not given) | > 200 | 0.575 | 
CCN1CCC(O)(c2ccc(OC)cc2)C(C(=O)c2ccc(OC)cc2)C1 (stereo not given) | > 550 | 14.5 | 
Oc1ccc([S+](c2ccc(O)cc2)c2ccc(O)cc2)cc1 | > 145 | > 145 | 
CN(C)P1(=O)OCC(C(C)(C)C)CN1c1ccccc1 (stereo not given) | > 200 | > 200 | 
CCC(COCC(CC)C(=O)O)C(=O)O (stereo not given) |  |  | inactive
CC(=O)Nc1ccc(S(=O)(=O)NN=C2CCCC2)cc1 | > 851 | 708 | 
COc1ccc(NC(=O)/C(=C/c2ccccc2)C(C)=O)cc1 | > 123 | 18.6 | 
COc1ccc2c3c(c(C(=O)O)oc13)CCC2 |  |  | inactive
Cc1cc(N(CCC#N)CCC#N)ccc1/C=C(\NC(=O)/C=C/c1ccccc1)NC(=O)Nc1ccccc1C | > 9.77 | > 9.77 | 
C[Si](C)(C)/C(Br)=C\CCN1C(=O)CCC1O (stereo not given) |  |  | inactive
Cc1c(C)n(COCCO)c2ncnc(N)c12 | > 200 | > 200 | 
Cc1ccnc(NC(=O)Nc2ccccc2Cl)c1 | > 200 | > 200 | 
Cc1nc2c(cnn2C)cc1CCc1ccccc1 | > 200 | 33.9 | 
O=C(O)CCCCCCCC(O)C(O)CCCCCCCC(=O)O (stereo not given) | > 195 | > 195 | 
CC(=O)Oc1ccccc1/C=C/C(=O)/C=C/c1ccccc1OC(C)=O | > 20 | 2.14 | 
S=c1[nH]nc(COc2ccc(Cl)cc2)n1-c1ccccc1 | > 200 | 30.9 | 
CC1=NN(c2ccccc2)C(=O)C1C(=O)C(=O)Nc1ccc(C)cc1C (stereo not given) |  | 102 | inactive
CN(/N=C/c1ccccn1)C1=NCCN1 | > 200 | > 200 | 
